{"source": "ChEMBL document CHEMBL4507269", "about": "“Data for DCP probe BAY-386” (2021)", "key": {"[1]": {"molecular_target": "T1, Prostaglandin E2 receptor EP3 subtype (Homo sapiens) (UniProt P43115)", "T1 sequence (whole entry)": "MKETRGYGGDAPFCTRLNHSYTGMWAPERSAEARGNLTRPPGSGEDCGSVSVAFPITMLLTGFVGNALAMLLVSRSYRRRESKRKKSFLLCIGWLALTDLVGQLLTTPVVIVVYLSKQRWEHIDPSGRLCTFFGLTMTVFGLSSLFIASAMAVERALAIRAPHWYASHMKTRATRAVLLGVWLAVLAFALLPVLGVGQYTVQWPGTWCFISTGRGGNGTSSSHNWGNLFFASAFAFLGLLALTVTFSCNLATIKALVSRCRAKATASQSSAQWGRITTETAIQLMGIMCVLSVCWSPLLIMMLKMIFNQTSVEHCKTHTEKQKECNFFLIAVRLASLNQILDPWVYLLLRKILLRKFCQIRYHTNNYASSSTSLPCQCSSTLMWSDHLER", "test": "EP3 (h) Eurofins-Cerep Cellular and Nuclear Receptor Functional Assays", "settings": "Compound concentration 10.0 uM"}, "[2]": {"tested_on": "Tyrosine-protein kinase ABL1 (Homo sapiens), P00519 [Q252H]", "settings": "Compound concentration 1000.0 nM"}, "[3]": {"molecular_target": "Activin receptor type-1B (Homo sapiens) (UniProt P36896)", "settings": "Compound concentration 1000.0 nM"}, "[4]": {"molecular_target": "Serine/threonine-protein kinase BRSK1 (Homo sapiens) (UniProt Q8TDC3)", "settings": "Compound concentration 1000.0 nM"}, "[5]": {"molecular_target": "Tyrosine-protein kinase BTK (Homo sapiens) (UniProt Q06187)", "settings": "Compound concentration 1000.0 nM"}, "[6]": {"molecular_target": "Calcium/calmodulin-dependent protein kinase kinase 1 (Homo sapiens) (UniProt Q8N5S9)", "settings": "Compound concentration 1000.0 nM"}, "[7]": {"molecular_target": "Calcium/calmodulin-dependent protein kinase kinase 2 (Homo sapiens) (UniProt Q96RR4)", "settings": "Compound concentration 1000.0 nM"}, "[8]": {"molecular_target": "Cyclin-dependent kinase 19 (Homo sapiens) (UniProt Q9BWU1)", "settings": "Compound concentration 1000.0 nM"}, "[9]": {"molecular_target": "Dual specificity protein kinase CLK3 (Homo sapiens) (UniProt P49761)", "settings": "Compound concentration 1000.0 nM"}, "[10]": {"molecular_target": "Serine/threonine-protein kinase 17B (Homo sapiens) (UniProt O94768)", "settings": "Compound concentration 1000.0 nM"}, "[11]": {"molecular_target": "Dual specificity tyrosine-phosphorylation-regulated kinase 1B (Homo sapiens) (UniProt Q9Y463)", "sequence (Q9Y463 whole entry, looked up)": "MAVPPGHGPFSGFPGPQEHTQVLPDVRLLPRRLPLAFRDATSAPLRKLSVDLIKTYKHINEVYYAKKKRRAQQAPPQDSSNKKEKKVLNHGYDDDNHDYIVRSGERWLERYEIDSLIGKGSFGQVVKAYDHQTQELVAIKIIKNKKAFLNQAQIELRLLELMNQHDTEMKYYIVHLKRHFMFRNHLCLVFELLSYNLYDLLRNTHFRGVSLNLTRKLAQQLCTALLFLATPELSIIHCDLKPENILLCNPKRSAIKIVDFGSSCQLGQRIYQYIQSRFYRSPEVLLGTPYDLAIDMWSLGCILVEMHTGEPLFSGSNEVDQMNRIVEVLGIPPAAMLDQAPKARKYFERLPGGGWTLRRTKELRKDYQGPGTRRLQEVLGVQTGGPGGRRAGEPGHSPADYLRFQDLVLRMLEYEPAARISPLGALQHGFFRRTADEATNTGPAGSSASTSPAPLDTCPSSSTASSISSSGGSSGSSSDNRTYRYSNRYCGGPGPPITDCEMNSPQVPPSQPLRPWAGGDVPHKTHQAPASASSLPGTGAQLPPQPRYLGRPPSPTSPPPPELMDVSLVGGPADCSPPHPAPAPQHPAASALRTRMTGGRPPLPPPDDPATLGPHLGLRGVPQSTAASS", "settings": "Compound concentration 1000.0 nM"}, "[12]": {"tested_on": "Epidermal growth factor receptor (Homo sapiens), P00533 [G719S]", "settings": "Compound concentration 1000.0 nM"}, "[13]": {"molecular_target": "Receptor tyrosine-protein kinase erbB-4 (Homo sapiens) (UniProt Q15303)", "sequence (Q15303 whole entry)": "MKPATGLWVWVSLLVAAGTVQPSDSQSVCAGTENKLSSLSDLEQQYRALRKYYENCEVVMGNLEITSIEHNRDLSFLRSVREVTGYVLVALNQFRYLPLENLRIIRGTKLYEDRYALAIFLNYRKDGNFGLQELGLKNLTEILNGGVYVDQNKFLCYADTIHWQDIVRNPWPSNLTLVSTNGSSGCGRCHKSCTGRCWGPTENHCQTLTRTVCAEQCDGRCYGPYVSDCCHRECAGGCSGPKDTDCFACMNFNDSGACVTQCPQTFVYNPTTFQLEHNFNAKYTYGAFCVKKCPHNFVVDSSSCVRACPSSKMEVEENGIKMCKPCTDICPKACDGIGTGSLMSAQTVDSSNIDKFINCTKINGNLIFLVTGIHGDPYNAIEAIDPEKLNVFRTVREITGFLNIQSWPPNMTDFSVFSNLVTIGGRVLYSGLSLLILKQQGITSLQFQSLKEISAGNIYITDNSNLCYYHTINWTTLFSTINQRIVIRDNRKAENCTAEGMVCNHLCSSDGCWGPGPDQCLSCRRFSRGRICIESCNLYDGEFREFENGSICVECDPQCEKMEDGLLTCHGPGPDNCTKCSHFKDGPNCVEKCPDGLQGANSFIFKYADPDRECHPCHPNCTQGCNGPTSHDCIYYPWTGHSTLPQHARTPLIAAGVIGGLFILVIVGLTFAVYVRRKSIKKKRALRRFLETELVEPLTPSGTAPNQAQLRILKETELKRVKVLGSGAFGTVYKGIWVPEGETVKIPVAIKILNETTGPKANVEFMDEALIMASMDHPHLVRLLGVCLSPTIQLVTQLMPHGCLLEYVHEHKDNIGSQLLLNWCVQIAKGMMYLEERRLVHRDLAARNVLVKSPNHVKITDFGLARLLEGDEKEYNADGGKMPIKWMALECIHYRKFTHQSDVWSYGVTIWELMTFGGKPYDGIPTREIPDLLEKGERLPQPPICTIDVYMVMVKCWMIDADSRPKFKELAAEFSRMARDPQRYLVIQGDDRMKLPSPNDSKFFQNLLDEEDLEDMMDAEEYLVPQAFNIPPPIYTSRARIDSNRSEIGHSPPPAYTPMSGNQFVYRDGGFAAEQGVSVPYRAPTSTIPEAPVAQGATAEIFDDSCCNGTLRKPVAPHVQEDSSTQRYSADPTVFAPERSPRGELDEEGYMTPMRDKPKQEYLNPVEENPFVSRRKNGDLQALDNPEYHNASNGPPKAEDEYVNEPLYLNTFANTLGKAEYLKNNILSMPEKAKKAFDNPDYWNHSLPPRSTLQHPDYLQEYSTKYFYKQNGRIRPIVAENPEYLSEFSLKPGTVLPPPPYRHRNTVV", "settings": "Compound concentration 1000.0 nM"}, "[14]": {"molecular_target": "Vascular endothelial growth factor receptor 3 (Homo sapiens) (UniProt P35916)", "settings": "Compound concentration 1000.0 nM"}, "[15]": {"molecular_target": "Serine/threonine-protein kinase LATS2 (Homo sapiens) (UniProt Q9NRM7)", "settings": "Compound concentration 1000.0 nM"}, "[16]": {"molecular_target": "Mitogen-activated protein kinase kinase kinase kinase 5 (Homo sapiens) (UniProt Q9Y4K4)", "settings": "Compound concentration 1000.0 nM"}, "[17]": {"molecular_target": "MAP kinase-activated protein kinase 2 (Homo sapiens) (UniProt P49137)", "settings": "Compound concentration 1000.0 nM"}, "[18]": {"molecular_target": "Serine/threonine-protein kinase MARK1 (Homo sapiens) (UniProt Q9P0L2)", "settings": "Compound concentration 1000.0 nM"}, "[19]": {"molecular_target": "Dual specificity mitogen-activated protein kinase kinase 5 (Homo sapiens) (UniProt Q13163)", "sequence (Q13163 whole entry)": "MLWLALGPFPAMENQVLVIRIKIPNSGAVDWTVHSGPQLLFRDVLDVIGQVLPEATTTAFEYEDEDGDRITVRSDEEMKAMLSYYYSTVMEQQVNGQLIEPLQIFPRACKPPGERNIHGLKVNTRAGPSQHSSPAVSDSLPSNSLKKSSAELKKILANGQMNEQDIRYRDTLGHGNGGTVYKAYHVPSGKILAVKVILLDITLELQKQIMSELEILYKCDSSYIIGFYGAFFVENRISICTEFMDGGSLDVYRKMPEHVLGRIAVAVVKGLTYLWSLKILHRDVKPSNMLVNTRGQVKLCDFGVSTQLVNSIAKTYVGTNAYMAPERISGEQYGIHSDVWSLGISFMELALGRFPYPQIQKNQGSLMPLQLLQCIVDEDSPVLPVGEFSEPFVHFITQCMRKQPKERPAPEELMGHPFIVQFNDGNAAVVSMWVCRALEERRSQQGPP", "settings": "Compound concentration 1000.0 nM"}, "[20]": {"molecular_target": "Dual specificity mitogen-activated protein kinase kinase 7 (Homo sapiens) (UniProt O14733)", "sequence (O14733 whole entry)": "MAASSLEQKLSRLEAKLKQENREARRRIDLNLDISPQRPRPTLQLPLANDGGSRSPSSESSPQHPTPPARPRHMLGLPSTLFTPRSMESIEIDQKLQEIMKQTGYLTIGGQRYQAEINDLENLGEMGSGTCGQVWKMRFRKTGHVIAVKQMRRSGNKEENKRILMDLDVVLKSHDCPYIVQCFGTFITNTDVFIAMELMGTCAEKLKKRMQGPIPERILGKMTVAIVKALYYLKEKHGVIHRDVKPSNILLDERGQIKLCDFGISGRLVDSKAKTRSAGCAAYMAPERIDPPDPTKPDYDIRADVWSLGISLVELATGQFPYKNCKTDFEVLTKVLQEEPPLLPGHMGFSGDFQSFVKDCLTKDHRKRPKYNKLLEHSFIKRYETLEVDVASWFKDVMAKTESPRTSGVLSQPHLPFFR", "settings": "Compound concentration 1000.0 nM"}, "[21]": {"molecular_target": "Mitogen-activated protein kinase kinase kinase 10 (Homo sapiens) (UniProt Q02779)", "sequence (Q02779 whole entry, looked up)": "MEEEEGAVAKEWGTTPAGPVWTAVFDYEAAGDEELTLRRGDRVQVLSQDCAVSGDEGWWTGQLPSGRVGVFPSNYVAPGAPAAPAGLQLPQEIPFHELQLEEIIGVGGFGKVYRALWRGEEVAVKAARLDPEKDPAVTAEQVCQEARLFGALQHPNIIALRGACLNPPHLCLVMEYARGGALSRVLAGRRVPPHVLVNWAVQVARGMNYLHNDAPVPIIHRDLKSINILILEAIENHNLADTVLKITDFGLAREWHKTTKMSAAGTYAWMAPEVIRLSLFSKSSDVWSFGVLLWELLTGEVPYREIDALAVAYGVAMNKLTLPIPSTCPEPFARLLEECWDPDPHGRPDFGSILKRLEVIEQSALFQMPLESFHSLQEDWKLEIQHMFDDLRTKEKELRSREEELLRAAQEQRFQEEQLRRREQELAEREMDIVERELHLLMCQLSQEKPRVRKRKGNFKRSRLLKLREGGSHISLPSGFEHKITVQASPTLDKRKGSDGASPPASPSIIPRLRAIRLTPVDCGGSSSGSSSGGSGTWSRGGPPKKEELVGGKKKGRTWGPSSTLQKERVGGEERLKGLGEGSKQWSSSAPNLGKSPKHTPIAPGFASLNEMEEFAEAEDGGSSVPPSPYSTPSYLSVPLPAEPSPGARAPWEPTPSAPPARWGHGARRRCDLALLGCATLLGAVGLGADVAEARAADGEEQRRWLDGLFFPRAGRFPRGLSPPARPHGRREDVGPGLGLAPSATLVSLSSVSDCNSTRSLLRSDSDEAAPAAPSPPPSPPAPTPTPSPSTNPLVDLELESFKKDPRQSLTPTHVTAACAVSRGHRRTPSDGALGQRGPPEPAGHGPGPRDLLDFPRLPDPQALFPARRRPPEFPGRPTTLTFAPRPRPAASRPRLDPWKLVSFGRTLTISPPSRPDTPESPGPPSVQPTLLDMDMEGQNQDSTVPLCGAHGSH", "settings": "Compound concentration 1000.0 nM"}, "[22]": {"molecular_target": "Serine/threonine-protein kinase 38-like (Homo sapiens) (UniProt Q9Y2H1)", "sequence (Q9Y2H1 2-464 limits assumed)": "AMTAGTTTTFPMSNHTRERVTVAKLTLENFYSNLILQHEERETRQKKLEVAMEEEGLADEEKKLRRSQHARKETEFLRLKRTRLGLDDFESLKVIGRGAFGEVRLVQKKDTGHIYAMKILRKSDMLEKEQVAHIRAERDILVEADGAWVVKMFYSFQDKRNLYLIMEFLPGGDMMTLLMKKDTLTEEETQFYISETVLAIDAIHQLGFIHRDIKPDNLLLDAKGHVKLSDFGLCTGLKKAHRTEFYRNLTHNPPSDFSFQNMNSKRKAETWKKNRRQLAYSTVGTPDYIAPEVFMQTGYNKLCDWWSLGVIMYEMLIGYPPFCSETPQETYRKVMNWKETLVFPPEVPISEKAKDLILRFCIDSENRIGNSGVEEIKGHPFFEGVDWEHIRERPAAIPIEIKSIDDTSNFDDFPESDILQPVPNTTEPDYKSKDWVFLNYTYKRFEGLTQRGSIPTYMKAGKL", "settings": "Compound concentration 1000.0 nM"}, "[23]": {"molecular_target": "3-phosphoinositide-dependent protein kinase 1 (Homo sapiens) (UniProt O15530)", "settings": "Compound concentration 1000.0 nM"}, "[24]": {"molecular_target": "Cyclin-dependent kinase 15 (Homo sapiens) (UniProt Q96Q40)", "settings": "Compound concentration 1000.0 nM"}, "[25]": {"molecular_target": "Phosphatidylinositol 3-kinase C2 domain-containing subunit gamma (Homo sapiens) (UniProt O75747)", "settings": "Compound concentration 1000.0 nM"}, "[26]": {"tested_on": "Phosphatidylinositol 4,5-bisphosphate 3-kinase catalytic subunit alpha isoform (Homo sapiens), P42336 [E542K]", "settings": "Compound concentration 1000.0 nM"}, "[27]": {"molecular_target": "Serine/threonine-protein kinase PLK3 (Homo sapiens) (UniProt Q9H4B4)", "settings": "Compound concentration 1000.0 nM"}, "[28]": {"molecular_target": "Proto-oncogene tyrosine-protein kinase receptor Ret (Homo sapiens) (UniProt P07949)", "settings": "Compound concentration 1000.0 nM"}, "[29]": {"molecular_target": "Dual serine/threonine and tyrosine protein kinase (Homo sapiens) (UniProt Q6XUX3)", "settings": "Compound concentration 1000.0 nM"}, "[30]": {"molecular_target": "NUAK family SNF1-like kinase 2 (Homo sapiens) (UniProt Q9H093)", "settings": "Compound concentration 1000.0 nM"}, "[31]": {"molecular_target": "Serine/threonine-protein kinase tousled-like 1 (Homo sapiens) (UniProt Q9UKI8)", "settings": "Compound concentration 1000.0 nM"}, "[32]": {"molecular_target": "Dual specificity protein kinase TTK (Homo sapiens) (UniProt P33981)", "sequence (P33981 whole entry)": "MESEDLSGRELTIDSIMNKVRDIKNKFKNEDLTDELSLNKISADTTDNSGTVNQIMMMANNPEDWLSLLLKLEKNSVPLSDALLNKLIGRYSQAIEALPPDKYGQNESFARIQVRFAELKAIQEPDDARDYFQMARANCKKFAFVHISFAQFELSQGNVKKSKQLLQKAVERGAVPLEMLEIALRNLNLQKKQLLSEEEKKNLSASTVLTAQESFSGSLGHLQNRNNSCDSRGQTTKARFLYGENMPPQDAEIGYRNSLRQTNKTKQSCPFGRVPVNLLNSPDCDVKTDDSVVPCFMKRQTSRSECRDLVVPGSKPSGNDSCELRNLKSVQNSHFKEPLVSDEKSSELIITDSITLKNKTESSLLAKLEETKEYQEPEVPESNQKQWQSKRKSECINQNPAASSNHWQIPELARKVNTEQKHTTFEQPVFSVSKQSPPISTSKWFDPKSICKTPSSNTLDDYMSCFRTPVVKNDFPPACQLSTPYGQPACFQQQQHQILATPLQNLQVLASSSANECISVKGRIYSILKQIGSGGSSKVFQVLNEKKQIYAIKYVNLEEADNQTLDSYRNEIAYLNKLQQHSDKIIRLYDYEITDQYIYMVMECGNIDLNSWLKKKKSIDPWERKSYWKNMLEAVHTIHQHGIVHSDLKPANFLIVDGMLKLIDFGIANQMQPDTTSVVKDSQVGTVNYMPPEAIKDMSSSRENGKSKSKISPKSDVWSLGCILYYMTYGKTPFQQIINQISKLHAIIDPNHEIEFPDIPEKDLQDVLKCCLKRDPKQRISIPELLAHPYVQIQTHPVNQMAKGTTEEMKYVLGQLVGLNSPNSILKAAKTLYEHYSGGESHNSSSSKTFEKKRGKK", "settings": "Compound concentration 1000.0 nM"}, "[33]": {"molecular_target": "Non-receptor tyrosine-protein kinase TYK2 (Homo sapiens) (UniProt P29597)", "settings": "Compound concentration 1000.0 nM"}, "[34]": {"molecular_target": "Sodium-dependent serotonin transporter (Homo sapiens) (UniProt P31645)", "settings": "Compound concentration 10.0 uM"}, "[35]": {"molecular_target": "Sigma intracellular receptor 2 (Homo sapiens, UniProt Q5BJF2)", "settings": "Compound concentration 10.0 uM"}}}
{"molecule": "O=C(N1CCS(=O)(=O)CC1)N1C[C@H](c2ccc(OC(F)(F)F)cc2)C[C@H](c2nc(C3CC3)no2)C1", "note": "[BAY-386]", "values": [{"measurement": "% Inhibition of Control Agonist Response (Mean n=2)", "setting": "[1]", "value": -8, "unit": "%"}, {"measurement": "% of Control Agonist Response (Mean n=2)", "setting": "[1]", "value": 4.5, "unit": "%"}, {"measurement": "residual activity", "setting": "[2]", "value": 100, "unit": "%"}, {"measurement": "residual activity", "setting": "[3]", "value": 100, "unit": "%"}, {"measurement": "residual activity", "setting": "[4]", "value": 100, "unit": "%"}, {"measurement": "residual activity", "setting": "[5]", "value": 100, "unit": "%"}, {"measurement": "residual activity", "setting": "[6]", "value": 100, "unit": "%"}, {"measurement": "residual activity", "setting": "[7]", "value": 100, "unit": "%"}, {"measurement": "residual activity", "setting": "[8]", "value": 100, "unit": "%"}, {"measurement": "residual activity", "setting": "[9]", "value": 100, "unit": "%"}, {"measurement": "residual activity", "setting": "[10]", "value": 100, "unit": "%"}, {"measurement": "residual activity", "setting": "[11]", "value": 93, "unit": "%"}, {"measurement": "residual activity", "setting": "[12]", "value": 99, "unit": "%"}, {"measurement": "residual activity", "setting": "[13]", "value": 95, "unit": "%"}, {"measurement": "residual activity", "setting": "[14]", "value": 100, "unit": "%"}, {"measurement": "residual activity", "setting": "[15]", "value": 100, "unit": "%"}, {"measurement": "residual activity", "setting": "[16]", "value": 100, "unit": "%"}, {"measurement": "residual activity", "setting": "[17]", "value": 100, "unit": "%"}, {"measurement": "residual activity", "setting": "[18]", "value": 100, "unit": "%"}, {"measurement": "residual activity", "setting": "[19]", "value": 100, "unit": "%"}, {"measurement": "residual activity", "setting": "[20]", "value": 100, "unit": "%"}, {"measurement": "residual activity", "setting": "[21]", "value": 99, "unit": "%"}, {"measurement": "residual activity", "setting": "[22]", "value": 100, "unit": "%"}, {"measurement": "residual activity", "setting": "[23]", "value": 94, "unit": "%"}, {"measurement": "residual activity", "setting": "[24]", "value": 100, "unit": "%"}, {"measurement": "residual activity", "setting": "[25]", "value": 93, "unit": "%"}, {"measurement": "residual activity", "setting": "[26]", "value": 88, "unit": "%"}, {"measurement": "residual activity", "setting": "[27]", "value": 98, "unit": "%"}, {"measurement": "residual activity", "setting": "[28]", "value": 93, "unit": "%"}, {"measurement": "residual activity", "setting": "[29]", "value": 100, "unit": "%"}, {"measurement": "residual activity", "setting": "[30]", "value": 100, "unit": "%"}, {"measurement": "residual activity", "setting": "[31]", "value": 94, "unit": "%"}, {"measurement": "residual activity", "setting": "[32]", "value": 82, "unit": "%"}, {"measurement": "residual activity", "setting": "[33]", "value": 53, "unit": "%"}, {"measurement": "inhibition", "setting": "[34]", "value": 8.68, "unit": "%"}, {"measurement": "inhibition", "setting": "[35]", "value": 67.7, "unit": "%"}]}
{"molecule": "Cc1noc([C@H]2C[C@@H](c3ccc(C(F)(F)F)cc3)CN(C(=O)N3CCS(=O)(=O)C3)C2)n1", "note": "[BAY-448]", "values": [{"measurement": "% Inhibition of Control Agonist Response (Mean n=2)", "setting": "[1]", "value": 0.6, "unit": "%"}, {"measurement": "% of Control Agonist Response (Mean n=2)", "setting": "[1]", "value": -0.6, "unit": "%"}, {"measurement": "residual activity", "setting": "[2]", "value": 100, "unit": "%"}, {"measurement": "residual activity", "setting": "[3]", "value": 100, "unit": "%"}, {"measurement": "residual activity", "setting": "[4]", "value": 100, "unit": "%"}, {"measurement": "residual activity", "setting": "[5]", "value": 96, "unit": "%"}, {"measurement": "residual activity", "setting": "[6]", "value": 100, "unit": "%"}, {"measurement": "residual activity", "setting": "[7]", "value": 100, "unit": "%"}, {"measurement": "residual activity", "setting": "[8]", "value": 100, "unit": "%"}, {"measurement": "residual activity", "setting": "[9]", "value": 100, "unit": "%"}, {"measurement": "residual activity", "setting": "[10]", "value": 100, "unit": "%"}, {"measurement": "residual activity", "setting": "[11]", "value": 76, "unit": "%"}, {"measurement": "residual activity", "setting": "[12]", "value": 100, "unit": "%"}, {"measurement": "residual activity", "setting": "[13]", "value": 100, "unit": "%"}, {"measurement": "residual activity", "setting": "[14]", "value": 100, "unit": "%"}, {"measurement": "residual activity", "setting": "[15]", "value": 100, "unit": "%"}, {"measurement": "residual activity", "setting": "[16]", "value": 100, "unit": "%"}, {"measurement": "residual activity", "setting": "[17]", "value": 97, "unit": "%"}, {"measurement": "residual activity", "setting": "[18]", "value": 91, "unit": "%"}, {"measurement": "residual activity", "setting": "[19]", "value": 78, "unit": "%"}, {"measurement": "residual activity", "setting": "[20]", "value": 100, "unit": "%"}, {"measurement": "residual activity", "setting": "[21]", "value": 96, "unit": "%"}, {"measurement": "residual activity", "setting": "[22]", "value": 100, "unit": "%"}, {"measurement": "residual activity", "setting": "[23]", "value": 95, "unit": "%"}, {"measurement": "residual activity", "setting": "[24]", "value": 100, "unit": "%"}, {"measurement": "residual activity", "setting": "[25]", "value": 90, "unit": "%"}, {"measurement": "residual activity", "setting": "[26]", "value": 71, "unit": "%"}, {"measurement": "residual activity", "setting": "[27]", "value": 88, "unit": "%"}, {"measurement": "residual activity", "setting": "[28]", "value": 100, "unit": "%"}, {"measurement": "residual activity", "setting": "[29]", "value": 94, "unit": "%"}, {"measurement": "residual activity", "setting": "[30]", "value": 100, "unit": "%"}, {"measurement": "residual activity", "setting": "[31]", "value": 100, "unit": "%"}, {"measurement": "residual activity", "setting": "[32]", "value": 100, "unit": "%"}, {"measurement": "residual activity", "setting": "[33]", "value": 100, "unit": "%"}, {"measurement": "inhibition", "setting": "[34]", "value": 5.57, "unit": "%"}, {"measurement": "inhibition", "setting": "[35]", "value": 42.4, "unit": "%"}]}
